Experiment [1] relates to Wnt activity (Wnt-responsive SP5 promoter luciferase reporter in SW480 cells). In words: Wnt activity reporter assay: SW480 cells with SP5 promoter-driven firefly luciferase. The experiment is classed as cell-based. The conditions noted are these: 24 h after compound addition, read-out: Wnt inhibition. The source says: The above synthesized compounds were screened using the assay procedure for Wnt activity described below.
Reporter cell lines were generated by stably transducing cells of cancer cell lines (e.g., colon cancer) with a lentiviral construct that include a Wnt-responsive promoter driving expression of the firefly luciferase gene.
Lentiviral constructs were made in which the SP5 promoter, a promoter having eight TCF/LEF binding sites derived from the SP5 promoter, was linked upstream of the firefly luciferase gene. The lentiviral constructs included a hygromycin resistance gene as a selectable marker. The SP5 promoter construct was used to transduce SW480 cells, a colon cancer cell line having a mutated APC gene that generates a truncated APC protein, leading to de-regulated accumulation of β-catenin.
Cultured SW480 cells bearing a reporter construct were distributed at approximately 10,000 cells per well into 384 well multiwell plates. Compounds were then added to the wells in half-log dilutions using a three micromolar top concentration. A series of control wells for each cell type received only buffer and compound solvent. Twenty-four hours after the addition of compound, reporter activity for luciferases was assayed, for example, by addition of the BrightGlo luminescence reagent (Promega) and the Victor3 plate reader (Perkin Elmer). Readings were normalized to DMSO only treated cells, and normalized activities were then used for the IC50 calculations.

A further experiment addresses DYRK1A (Homo sapiens (Human), UniProt Q13627). As to the kind of experiment: DYRK1A activity Tau assay: pSer396 Tau in SH-SY5Y cells by ELISA / western blot. The experiment is classed as cell-based. As to conditions: overnight (16-18 h) exposure.

Where two headings read alike, the source gives them in different places. Bounds are passed on as bounds.

As to “5-(5-(Piperidin-1-ylmethyl)pyridin-3-yl)-N-(2-(pyrrolidin-1-yl)pyridin-4-yl)-1H-indazole-3-carboxamide [Compound 100]”, the IC50 in experiment [1] is 2600 nM. On DYRK1A, this compound gave an EC50 of 2 nM.
On to `CN1CCC(NC(=O)c2n[nH]c3ccc(-c4cccnc4)cc23)CC1` [Compound 1, N-(1-Methylpiperidin-4-yl)-5-(pyridin-3-yl)-1H-indazole-3-carboxamide], for which, in experiment [1] (Homo sapiens), the IC50 was found to be 1300 nM. On DYRK1A, the EC50 was found to be 65 nM.
On the same counts, the results for `O=C(NC1CCNCC1)c1n[nH]c2ccc(-c3cccnc3)cc12` [Compound 3, N-(Piperidin-4-yl)-5-(pyridin-3-yl)-1H-indazole-3-carboxamide] are 6440 nM and 28 nM.
For the compound `O=C(NC1CCCCC1)c1n[nH]c2ccc(-c3cccnc3)cc12` [Compound 4, N-Cyclohexyl-5-(pyridin-3-yl)-1H-indazole-3-carboxamide], in experiment [1] (Homo sapiens), the IC50 stood at 4460 nM. The compound also came in with an EC50 on DYRK1A of 35 nM.
Regarding `O=C(NC1CCC1)c1n[nH]c2ccc(-c3cccnc3)cc12` [Compound 5, N-Cyclobutyl-5-(pyridin-3-yl)-1H-indazole-3-carboxamide], the IC50 in experiment [1] (Homo sapiens) stood at 11900 nM. The same compound registered an EC50 on DYRK1A of 18 nM.
Consider `O=C(NC1CC1)c1n[nH]c2ccc(-c3cccnc3)cc12` [Compound 6, N-Cyclopropyl-5-(pyridin-3-yl)-1H-indazole-3-carboxamide], for which, in experiment [1] (Homo sapiens), the IC50 is 5530 nM. On DYRK1A, this compound returned an EC50 of 22 nM.
For the compound `CN1CCN(c2ccc(NC(=O)c3n[nH]c4ccc(-c5cncc(NC(=O)c6ccc(F)cc6F)c5)cc34)cn2)CC1` [Compound 47, 5-(5-(2,4-Difluorobenzamido)pyridin-3-yl)-N-(6-(4-methylpiperazin-1-yl)pyridin-3-yl)-1H-indazole-3-carboxamide], the IC50 in experiment [1] (Homo sapiens) was 333 nM.
With `CN1CCN(c2ccc(NC(=O)c3n[nH]c4ccc(-c5cncc(NC(=O)c6c(F)cccc6F)c5)cc34)cn2)CC1` [Compound 49, 5-(5-(2,6-Difluorobenzamido)pyridin-3-yl)-N-(6-(4-methylpiperazin-1-yl)pyridin-3-yl)-1H-indazole-3-carboxamide], the IC50 in experiment [1] (Homo sapiens) was 226 nM.
As to `O=C(Nc1cccnc1)c1n[nH]c2ccc(-c3cncc(CN4CC(CO)(CO)C4)c3)cc12` [Compound 50, 5-(5-((3,3-Bis(hydroxymethyl)azetidin-1-yl)methyl)pyridin-3-yl)-N-(pyridin-3-yl)-1H-indazole-3-carboxamide], the IC50 in experiment [1] (Homo sapiens) turned out to be 10000 nM.
Consider `[2H]C([2H])([2H])Oc1ccc(NC(=O)c2n[nH]c3ccc(-c4cncc(CN5CCCCC5)c4)cc23)cn1` [Compound 68, N-(6-(Methoxy-d3)pyridin-3-yl)-5-(5-(piperidin-1-ylmethyl)pyridin-3-yl)-1H-indazole-3-carboxamide], for which, in experiment [1] (Homo sapiens), the IC50 was 57 nM.
Consider `[2H]C([2H])([2H])Oc1ccc(NC(=O)c2n[nH]c3ccc(-c4cncc(C([2H])([2H])N5CCCCC5)c4)cc23)cn1` [Compound 69, N-(6-(methoxy-d3)pyridin-3-yl)-5-(5-(piperidin-1-ylmethyl-d2)pyridin-3-yl)-1H-indazole-3-carboxamide], for which the IC50 in experiment [1] (Homo sapiens) was 45 nM.
Turning to `O=C(Nc1ccc(OC(CO)CO)nc1)c1n[nH]c2ccc(-c3cncc(CN4CCCCC4)c3)cc12` [Compound 70, N-(6-((1,3-Dihydroxypropan-2-yl)oxy)pyridin-3-yl)-5-(5-(piperidin-1-ylmethyl)pyridin-3-yl)-1H-indazole-3-carboxamide], the IC50 in experiment [1] (Homo sapiens) was 500 nM.
On the same count and under the same terms, under `O=C(Nc1ccc(N2CC(CO)(CO)C2)nc1)c1n[nH]c2ccc(-c3cncc(CN4CCCCC4)c3)cc12` [Compound 72, N-(6-(3,3-Bis(hydroxymethyl)azetidin-1-yl)pyridin-3-yl)-5-(5-(piperidin-1-ylmethyl)pyridin-3-yl)-1H-indazole-3-carboxamide] stands 1500 nM.
The same measure, in the same setting: with `O=C(Nc1cccnc1)c1n[nH]c2ccc(-c3cncc(CN4CCS(=O)(=O)CC4)c3)cc12` [Compound 86, 5-(5-((1,1-Dioxidothiomorpholino)methyl)pyridin-3-yl)-N-(pyridin-3-yl)-1H-indazole-3-carboxamide] the figure was 210 nM; with `O=C(Nc1cnccn1)c1n[nH]c2ccc(-c3cncc(CN4CCCCCC4)c3)cc12` [Compound 88, 5-(5-(Azepan-1-ylmethyl)pyridin-3-yl)-N-(pyrazin-2-yl)-1H-indazole-3-carboxamide], 430 nM.
Consider `CC(C)OCCCNC(=O)c1n[nH]c2ccc(-c3cncc(F)c3)cc12` [Compound 1263, 5-(5-Fluoropyridin-3-yl)-N-(3-isopropoxypropyl)-1H-indazole-3-carboxamide], for which the IC50 in experiment [1] (Homo sapiens) is 1400 nM.
The compound `CC(C)CCN1CCC(NC(=O)c2n[nH]c3ccc(-c4cccnc4)cc23)CC1` [Compound 1316, N-(1-Isopentylpiperidin-4-yl)-5-(pyridin-3-yl)-1H-indazole-3-carboxamide] came in with an EC50 on DYRK1A of 12 nM.
On DYRK1A, `NC1CN(c2cncc(-c3ccc4[nH]nc(C(=O)Nc5cccnc5)c4c3)n2)C1` [Compound 1317, 5-(6-(3-Aminoazetidin-1-yl)pyrazin-2-yl)-N-(pyridin-3-yl)-1H-indazole-3-carboxamide] gave an EC50 of 1 nM.
Regarding `CC(C)(F)CN1CCC(NC(=O)c2n[nH]c3ccc(-c4cnccn4)cc23)CC1` [Compound 1319, N-(1-(2-Fluoro-2-methylpropyl)piperidin-4-yl)-5-(pyrazin-2-yl)-1H-indazole-3-carboxamide], the EC50 at DYRK1A was found to be 97 nM.
On to `CC(C)(F)CN1CCC(NC(=O)c2n[nH]c3ccc(-c4cccnc4F)cc23)CC1` [Compound 1320, N-(1-(2-Fluoro-2-methylpropyl)piperidin-4-yl)-5-(2-fluoropyridin-3-yl)-1H-indazole-3-carboxamide], for which the EC50 at DYRK1A came to 42 nM.
As to `CC(C)(F)CN1CCC(NC(=O)c2n[nH]c3ccc(-c4ccc(F)nc4)cc23)CC1` [Compound 1321, N-(1-(2-Fluoro-2-methylpropyl)piperidin-4-yl)-5-(6-fluoropyridin-3-yl)-1H-indazole-3-carboxamide], the response on DYRK1A was half-maximal at 14 nM (EC50).
Compound `Cc1ncc(-c2ccc3[nH]nc(C(=O)NC4CCN(CC(C)(C)F)CC4)c3c2)cn1` [Compound 1322, N-(1-(2-Fluoro-2-methylpropyl)piperidin-4-yl)-5-(2-methylpyrimidin-5-yl)-1H-indazole-3-carboxamide] came in with a 50% effective concentration (EC50) on DYRK1A of 534 nM.
As for `O=C(NCC1CC1)c1n[nH]c2ccc(-c3cncc(Cl)c3)cc12` [Compound 1323, 5-(5-Chloropyridin-3-yl)-N-(cyclopropylmethyl)-1H-indazole-3-carboxamide], a half-maximal response on DYRK1A (EC50) required 43 nM.
Still for that read-out and setting: under `CN(C)Cc1ccc(NC(=O)c2n[nH]c3ccc(-c4cccnc4)cc23)cc1` [Compound 1324, N-(4-((Dimethylamino)methyl)phenyl)-5-(pyridin-3-yl)-1H-indazole-3-carboxamide] stands 10 nM.
Same read-out and setting: with `CN(C)Cc1ccc(NC(=O)c2n[nH]c3ccc(-c4cccc(F)c4F)cc23)cc1` [Compound 1325, 5-(2,3-Difluorophenyl)-N-(4-((dimethylamino)methyl)phenyl)-1H-indazole-3-carboxamide] the figure was 54 nM; with `O=C(Nc1ccc(CN2CCCC2)cc1)c1n[nH]c2ccc(-c3cccnc3)cc12` [Compound 1326, 5-(Pyridin-3-yl)-N-(4-(pyrrolidin-1-ylmethyl)phenyl)-1H-indazole-3-carboxamide], 10 nM; with `CN1CCN(Cc2ccc(NC(=O)c3n[nH]c4ccc(-c5cccc(F)c5F)cc34)cc2)CC1` [Compound 1332, 5-(2,3-Difluorophenyl)-N-(4-((4-methylpiperazin-1-yl)methyl)phenyl)-1H-indazole-3-carboxamide], 14 nM.
The same measure, in the same setting: under `CC(C)CNC(=O)c1n[nH]c2ccc(-c3ccc(F)nc3)cc12` [Compound 1335, 5-(6-Fluoropyridin-3-yl)-N-isobutyl-1H-indazole-3-carboxamide] stands 62 nM; under `CC(C)CNC(=O)c1n[nH]c2ccc(-c3cccnc3F)cc12` [Compound 1336, 5-(2-Fluoropyridin-3-yl)-N-isobutyl-1H-indazole-3-carboxamide], 22 nM; under `CN1CCC(N(C)C(=O)c2n[nH]c3ccc(-c4cccnc4)cc23)CC1` [Compound 1337, N-Methyl-N-(1-methylpiperidin-4-yl)-5-(pyridin-3-yl)-1H-indazole-3-carboxamide], 2500 nM.
`CCN1CCC(NC(=O)c2n[nH]c3ccc(-c4cccc(OC)c4F)cc23)CC1` [Compound 1338, N-(1-Ethylpiperidin-4-yl)-5-(2-fluoro-3-methoxyphenyl)-1H-indazole-3-carboxamide] returned an EC50 on DYRK1A of 1800 nM.
Same read-out and setting: under `COc1cccc(-c2ccc3[nH]nc(C(=O)NC(C)C)c3c2)c1F` [Compound 1339, 5-(2-Fluoro-3-methoxyphenyl)-N-isopropyl-1H-indazole-3-carboxamide] stands greater than 10000 nM; under `O=C(Nc1ccc(CN2CCCC2)cc1)c1n[nH]c2cc(F)c(-c3cccnc3)cc12` [Compound 1345, 6-Fluoro-5-(pyridin-3-yl)-N-(4-(pyrrolidin-1-ylmethyl)phenyl)-1H-indazole-3-carboxamide], 22 nM.

(Values after patent US10669240B2, “5-substituted indazole-3-carboxamides and preparation and use thereof” (Samumed, LLC, priority 2014, dated 2020).)
